According to patent publication US6441020B1, “Protein kinase C modulators. W” (priority 1995, dated 2002):

Legend:
Raji cells = details: Irie and Koshimizu 1988; cited from earlier work
[1] = tested on: protein kinase C preparation; details: Irie and Koshimizu 1988; cited from earlier work
protein kinase Cα = biological target: T1, protein kinase Cα (Bos taurus, UniProt P04409); test: [3H]PDBu receptor binding assay, protein kinase C α
T1 construct: Successful full-length expression of each isotype was confirmed by immunoblotting; made in house; host or cells: Sf9 or Sf158 insect cells (baculovirus)
Excerpt: (§1) Recombinant protein kinase Cα, β1, γ, ε, η, θ and μ were obtained as crude cell preparations as follows. The protein kinase C isotypes were expressed in Sf9 or Sf158 insect cells using recombinant baculoviruses as described (Patel and Stabel, 1989; Stabel, Schaap and Parker, 1991; Johannes et al., 1994). In the case of the θ isotype, human protein kinase Cθ was cloned in the plasmid vector pFlag-Mac and the protein expressed in E. coli strain DH5. Successful full-length expression of each isotype was confirmed by immunoblotting of infected insect cell or E. coli lysates with isotype-specific antibodies (Marais and Parker, 1989) as described (Liyange et al, 1992). Sf9 or Sf158 cells were infected with recombinant baculovirus isolates containing the specified protein kinase C isotype cDNAs (Parker et al, 1986; Coussens et al, 1986) or a non-protein kinase C-related adenovirus E1 a gene (Patel and Jones, 1990). After 3 days infected and uninfected control cells were collected by centrifugation at 600 RCF for 15 min and frozen. […]
(§2) The assay was carried out in 0.5 mL polypropylene centrifuge tubes. […] Specific and nonspecific binding values were then determined as described (Driedger and Blumberg, 1980b). […]

protein kinase C γ = biological target: T2, protein kinase C γ (Bos taurus, UniProt P05128); test: [3H]PDBu receptor binding assay, protein kinase C γ
T2 construct: Successful full-length expression of each isotype was confirmed by immunoblotting; made in house; host or cells: Sf9 or Sf158 insect cells (baculovirus)
Excerpt: as §1, §2

protein kinase C δ = biological target: T3, protein kinase C δ (Homo sapiens, UniProt Q05655); test: [3H]PDBu receptor binding assay, protein kinase C δ
T3 construct: made in house
T3 sequence (Q05655 whole entry): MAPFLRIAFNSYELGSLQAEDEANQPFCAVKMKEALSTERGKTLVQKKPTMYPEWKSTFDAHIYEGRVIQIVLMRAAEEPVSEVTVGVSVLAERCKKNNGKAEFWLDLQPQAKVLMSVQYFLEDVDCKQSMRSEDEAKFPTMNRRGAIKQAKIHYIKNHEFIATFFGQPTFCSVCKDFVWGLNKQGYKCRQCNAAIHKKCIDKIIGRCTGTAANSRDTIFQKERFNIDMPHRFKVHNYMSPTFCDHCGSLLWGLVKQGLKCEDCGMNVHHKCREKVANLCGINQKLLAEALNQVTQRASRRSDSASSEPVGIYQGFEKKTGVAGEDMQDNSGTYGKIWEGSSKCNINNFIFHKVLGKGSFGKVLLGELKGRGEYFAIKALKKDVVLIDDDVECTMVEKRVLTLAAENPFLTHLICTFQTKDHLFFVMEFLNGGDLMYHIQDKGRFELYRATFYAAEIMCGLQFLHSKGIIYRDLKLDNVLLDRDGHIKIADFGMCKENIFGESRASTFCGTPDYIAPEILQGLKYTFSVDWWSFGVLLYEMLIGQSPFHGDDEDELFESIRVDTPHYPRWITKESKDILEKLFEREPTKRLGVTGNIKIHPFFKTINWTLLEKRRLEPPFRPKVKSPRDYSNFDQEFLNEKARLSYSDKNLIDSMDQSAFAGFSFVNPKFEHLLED

protein kinase C ε = biological target: T4, protein kinase C ε (Homo sapiens, UniProt Q02156); test: [3H]PDBu receptor binding assay, protein kinase C ε
T4 construct: Successful full-length expression of each isotype was confirmed by immunoblotting; made in house; host or cells: Sf9 or Sf158 insect cells (baculovirus)
T4 sequence (Q02156 1-737): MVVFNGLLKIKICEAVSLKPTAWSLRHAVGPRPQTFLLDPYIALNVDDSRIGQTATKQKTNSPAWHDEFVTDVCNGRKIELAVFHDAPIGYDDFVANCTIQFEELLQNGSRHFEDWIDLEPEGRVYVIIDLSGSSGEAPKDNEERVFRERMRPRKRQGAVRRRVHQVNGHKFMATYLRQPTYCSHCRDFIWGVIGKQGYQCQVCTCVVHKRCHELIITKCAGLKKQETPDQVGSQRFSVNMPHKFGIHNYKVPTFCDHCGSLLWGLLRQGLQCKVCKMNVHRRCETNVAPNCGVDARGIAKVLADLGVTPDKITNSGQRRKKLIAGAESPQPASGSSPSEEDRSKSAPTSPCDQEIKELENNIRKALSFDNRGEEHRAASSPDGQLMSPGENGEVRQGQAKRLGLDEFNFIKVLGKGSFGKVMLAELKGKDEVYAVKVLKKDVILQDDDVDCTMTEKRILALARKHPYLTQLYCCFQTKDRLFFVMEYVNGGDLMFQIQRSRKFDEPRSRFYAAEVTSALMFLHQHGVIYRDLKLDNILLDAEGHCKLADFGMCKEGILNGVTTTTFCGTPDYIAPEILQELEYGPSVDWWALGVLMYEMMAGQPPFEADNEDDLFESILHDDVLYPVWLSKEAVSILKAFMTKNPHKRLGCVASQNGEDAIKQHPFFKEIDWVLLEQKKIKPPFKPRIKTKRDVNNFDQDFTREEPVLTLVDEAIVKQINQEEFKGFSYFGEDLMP
Excerpt: as §1, §2

protein kinase C η = biological target: T5, protein kinase C η (Homo sapiens, UniProt P24723); test: [3H]PDBu receptor binding assay, protein kinase C η
T5 construct: Successful full-length expression of each isotype was confirmed by immunoblotting; made in house; host or cells: Sf9 or Sf158 insect cells (baculovirus)
T5 sequence (P24723 whole entry): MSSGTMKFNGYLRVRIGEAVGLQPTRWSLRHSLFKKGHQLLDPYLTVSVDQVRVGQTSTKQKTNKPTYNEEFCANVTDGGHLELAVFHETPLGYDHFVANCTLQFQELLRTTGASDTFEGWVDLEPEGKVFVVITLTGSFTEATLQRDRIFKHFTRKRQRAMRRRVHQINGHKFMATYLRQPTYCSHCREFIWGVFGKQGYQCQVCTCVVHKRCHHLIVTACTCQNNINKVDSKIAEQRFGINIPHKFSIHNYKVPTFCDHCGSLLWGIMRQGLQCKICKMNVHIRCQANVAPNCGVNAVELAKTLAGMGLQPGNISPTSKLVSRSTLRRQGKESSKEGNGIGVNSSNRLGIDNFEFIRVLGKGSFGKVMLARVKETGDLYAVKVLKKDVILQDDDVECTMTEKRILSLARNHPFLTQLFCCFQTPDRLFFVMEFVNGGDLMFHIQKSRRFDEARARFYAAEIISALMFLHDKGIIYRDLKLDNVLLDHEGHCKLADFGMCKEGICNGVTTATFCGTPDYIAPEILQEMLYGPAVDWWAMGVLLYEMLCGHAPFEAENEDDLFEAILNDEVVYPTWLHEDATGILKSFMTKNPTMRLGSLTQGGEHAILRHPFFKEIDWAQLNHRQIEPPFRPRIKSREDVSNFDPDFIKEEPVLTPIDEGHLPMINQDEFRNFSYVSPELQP
Excerpt: as §1, §2

human protein kinase Cθ = biological target: T6, human protein kinase Cθ (Homo sapiens, UniProt Q04759); test: [3H]PDBu receptor binding assay, protein kinase C θ
T6 construct: Successful full-length expression of each isotype was confirmed by immunoblotting; FLAG (from vector pFlag-Mac); made in house; host or cells: E. coli strain DH5
T6 sequence (Q04759 whole entry): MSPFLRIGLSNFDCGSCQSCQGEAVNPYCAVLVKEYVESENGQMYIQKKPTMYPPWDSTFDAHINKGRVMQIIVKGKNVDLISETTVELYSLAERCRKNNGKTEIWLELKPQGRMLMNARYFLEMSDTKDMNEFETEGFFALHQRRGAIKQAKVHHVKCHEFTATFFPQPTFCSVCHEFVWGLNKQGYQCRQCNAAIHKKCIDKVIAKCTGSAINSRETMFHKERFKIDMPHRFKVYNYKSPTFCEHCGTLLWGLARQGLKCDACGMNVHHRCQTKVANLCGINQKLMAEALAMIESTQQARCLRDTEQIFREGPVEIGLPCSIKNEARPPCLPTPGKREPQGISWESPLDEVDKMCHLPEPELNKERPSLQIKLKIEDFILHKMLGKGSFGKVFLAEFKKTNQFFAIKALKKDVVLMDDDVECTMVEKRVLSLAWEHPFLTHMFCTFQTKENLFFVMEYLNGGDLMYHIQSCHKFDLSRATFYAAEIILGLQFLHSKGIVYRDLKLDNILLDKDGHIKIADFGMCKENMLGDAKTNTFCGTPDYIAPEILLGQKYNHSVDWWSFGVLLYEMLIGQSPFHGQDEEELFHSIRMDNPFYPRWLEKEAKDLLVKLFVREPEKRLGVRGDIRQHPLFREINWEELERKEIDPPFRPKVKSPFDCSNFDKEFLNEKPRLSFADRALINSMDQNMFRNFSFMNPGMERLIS
Excerpt: as §1, §2

protein kinase C μ = biological target: T7, protein kinase C μ (Homo sapiens, UniProt Q15139); test: [3H]PDBu receptor binding assay, protein kinase C μ
T7 construct: Successful full-length expression of each isotype was confirmed by immunoblotting; made in house; host or cells: Sf9 or Sf158 insect cells (baculovirus)
T7 sequence (Q15139 1-912): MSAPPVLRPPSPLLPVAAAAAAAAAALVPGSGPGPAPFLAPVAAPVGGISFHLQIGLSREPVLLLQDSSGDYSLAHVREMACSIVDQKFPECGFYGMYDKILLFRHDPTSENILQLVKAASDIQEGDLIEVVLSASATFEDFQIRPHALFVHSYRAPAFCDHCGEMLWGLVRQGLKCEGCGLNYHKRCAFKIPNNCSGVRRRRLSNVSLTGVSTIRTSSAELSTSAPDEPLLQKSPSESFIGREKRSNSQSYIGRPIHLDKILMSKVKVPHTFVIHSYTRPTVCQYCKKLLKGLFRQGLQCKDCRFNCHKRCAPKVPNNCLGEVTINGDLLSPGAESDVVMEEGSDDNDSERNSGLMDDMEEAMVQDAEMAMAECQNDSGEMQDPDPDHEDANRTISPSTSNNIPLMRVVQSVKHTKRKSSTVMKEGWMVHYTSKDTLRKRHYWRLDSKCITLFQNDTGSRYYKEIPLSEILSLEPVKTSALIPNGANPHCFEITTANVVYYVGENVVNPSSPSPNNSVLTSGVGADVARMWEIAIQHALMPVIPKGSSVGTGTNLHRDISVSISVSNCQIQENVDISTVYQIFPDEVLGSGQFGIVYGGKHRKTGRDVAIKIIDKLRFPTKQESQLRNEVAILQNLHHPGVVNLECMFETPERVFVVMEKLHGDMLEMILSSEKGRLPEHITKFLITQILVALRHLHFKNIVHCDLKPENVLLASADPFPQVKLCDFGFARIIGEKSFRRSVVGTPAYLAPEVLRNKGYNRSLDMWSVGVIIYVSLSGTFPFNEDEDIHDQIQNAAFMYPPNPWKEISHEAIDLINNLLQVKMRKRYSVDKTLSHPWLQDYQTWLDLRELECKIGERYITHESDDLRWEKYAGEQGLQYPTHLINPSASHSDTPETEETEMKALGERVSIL
Excerpt: as §1, §2

[2] = tested on: phorbol 12-myristate 13-acetate induced ear inflammation/erythema; test: Mouse ear anti-inflammatory test against phorbol 12-myristate 13-acetate; type: in vivo, mice
Protocol: Method: A stock solution of 300 pmoles of the standard inflammatory compound phorbol 12-myristate 13-acetate per 5 μL acetone was prepared. This solution was used to prepare ten-fold dilutions of N^1,14-O-digeranyl-(9S,12S)-indolactam V, prepared as in Example 8, covering concentrations of the latter ranging from 3,500 to 350,000 pmoles per 5 μL.

CCCCCCOC[C@@H]1Cc2c[nH]c3cccc(c23)N(C)[C@@H](C(C)C)C(=O)N1 [(−)-O-hexylindolactam V, 14-O-hexyl-(9S,12S)-indolactam V]
Induction of Epstein-Barr virus early antigen (Raji cells): no induction of the Epstein-Barr virus early antigen in Raji cells could be detected

CCCCOC[C@@H]1Cc2c[nH]c3cccc(c23)N(C)[C@@H](C(C)C)C(=O)N1 [(−)-14-O-butylindolactam V]
Induction of Epstein-Barr virus early antigen (Raji cells): no induction of the Epstein-Barr virus early antigen in Raji cells could be detected

COC[C@@H]1Cc2c[nH]c3cccc(c23)N(C)[C@@H](C(C)C)C(=O)N1 [(−)-14-O-methylindolactam V, 14-O-methyl-(9S,12S)-indolactam V]
Induction of Epstein-Barr virus early antigen (Raji cells): no induction of the Epstein-Barr virus early antigen in Raji cells could be detected
Inhibition of binding of [3H]PMA to a protein kinase C preparation [1]: did not measurably inhibit

CC(C)=CCC/C(C)=C/COC[C@@H]1Cc2cn(C/C=C(\C)CCC=C(C)C)c3cccc(c23)N(C)[C@@H](C(C)C)C(=O)N1 [N^1,14-O-digeranyl-(9S,12S)-indolactam V, N^1,14-O-Digeranyl-(9S,12S)-indolactam V]
Ki (protein kinase Cα): 5.9 µM
Ki (protein kinase C γ): 6.5 µM
Ki (protein kinase C δ): 0.9 µM
Ki (protein kinase C ε): 0.3 µM
Ki (protein kinase C η): 0.5 µM
Ki (human protein kinase Cθ): 0.9 µM
Ki (protein kinase C μ): 0.5 µM
Persistence of inhibition of PMA induced ear inflammation ([2]; mouse ear, highest concentration (350,000 pmoles per 5 μL), observation to 48 hours): inhibition persisting for the duration of the experiment at the highest concentration
Inhibition of phorbol 12-myristate 13-acetate induced ear inflammation/erythema ([2]; mouse right ear, topical 5 μL acetone, 300 pmoles PMA, test compound 3,500 to 350,000 pmoles per 5 μL, observed 1 to 48 hours): Inhibition of the phorbol 12-myristate 13-acetate induced inflammation was observed at the medium and high concentrations

(−)-indolactam V
Induction of Epstein-Barr virus early antigen (Raji cells): very active
Inhibition of binding of [3H]PMA to a protein kinase C preparation [1]: very active
